Laboratory results as given in US5541232A, “Treatment of multidrug resistant diseases” (Chemex Pharmaceuticals, Inc., priority 1994, dated 1996).
“Also recorded” adds a separate entry of the source. Like-named read-outs stand apart in the source and are kept apart here.

Tests used:
[1] = system: multidrug resistant tumor cells; assay: effects on vincristine (VBL substituted by vincristine in Example 3); type: cell-based
Description: In accordance with the invention VBL can be substituted by vincristine in Example 3.

[2] = system: benign, paramalignant and malignant growth of the skin; conditions: in combination with ionic zinc; cited from earlier work
[3] = system: KB-3-1 human cervical carcinoma cells; assay: inhibition of colony formation, KB-3-1; type: cell-based; conditions: KB 3-1, 240 h, read-out: IC50 (Masoprocol), 50% inhibition of colony formation, 10 days, 37° C., parenthesis: standard deviation
Description: To investigate whether masoprocol modulates multidrug resistance, a line of multidrug resistant (GRC-1) cells which were derived from parenteral drug sensitive human cervical carcinoma (KB-3-1) cells by transfection of the mdr1 genes were employed. Such transfection was by the method set forth in Choi, et al., Cell 53:519-529, 1989. These cell lines differ only with respect to the over-expression of P-glycoprotein. These tests were designed to examine whether masoprocol modulates tumor cell drug resistance by interfering with P-glycoprotein function. […] See, Regulation of initial vinblastine influx by P-glycoprotein, Shalinsky, et al., cited above.
Masoprocol was provided by Chemex Pharmaceuticals, Inc. (Fort Lee, N.J.). Tritiated vinblastine ([^3 H]VBL) (10 Ci mmol^-1) was purchased from Moravek Biochemicals (Brea, Calif.), stored in the dark at -80° C. and protected from light during the experiments. […]
First, cells which had been seeded at 200-300 cells/dish were incubated in media containing masoprocol or VBL. After an incubation period of 10 days at 37° C. the cells were fixed with methanol and stained with Giemsa, and the number of colonies per dish were counted and expressed as a percent of the number of colonies in control conditions. […] Parenthesis indicate standard deviations determined from replicate experiments.

normal cells = assay: toxicity to normal cells as opposed to cancer cells; type: cell-based
[4] = system: GRC-1 multidrug resistant human cervical carcinoma cells; assay: modulation of VBL toxicity (colony formation), GRC-1; type: cell-based; conditions: 25 μM masoprocol, 10 days, 37° C.
Experimental: Drug-sensitive KB-3-1 cells and the drug resistant subline (KB-GRC-1) were obtained from Dr. Igor Roninson (University of Illinois, College of Medicine, Chicago, Ill.). Cells were maintained in Dulbecco's modified Eagle's medium supplemented with 10% fetal bovine serum and 2 mM glutamine. The KB-GRC-1 cells were maintained in medium supplemented with 6 ng/ml colchicine.
To test the modulation of VBL toxicity by masoprocol, cells which had been seeded at 200-300 cells/dish were incubated in media containing various concentrations of VBL in the absence or presence of 25 μM masoprocol. After an incubation period of 10 days at 37° C. the cells were fixed and stained, and the number of colonies per dish were counted and expressed as a percent of the number of colonies formed in control conditions. 1.

[5] = system: GRC-1 multidrug resistant human cervical carcinoma cells; assay: steady state accumulation of VBL, GRC-1; type: cell-based
Experimental: (§1) At the desired time, the medium was aspirated and cells washed 5 times with ice cold PBS. Cells were digested overnight in 1N NaOH, at which time aliquots were used to determine protein content and radioactivity. The final concentration of VBL was 6 nM.
(§2) Cells were incubated for one hour with media containing either tritiated vinblastine (^3 H]VBL) alone or containing [^3 H]VBL with 50 μM masoprocol. Cells were then washed with ice cold PBS and the amount of VBL accumulated in cells was determined using a scintillation counter. In FIG. 1 each data point represents the mean of replicate experiments performed with duplicate cultures. Vertical bars are +/- S.D.

mammals = conditions: in vivo; cited from earlier work
SNB Glioblastoma cells = assay: in vitro cytotoxicity anti tumor activity; type: cell-based; conditions: read-out: IC50
[6] = system: KB-3-1 human cervical carcinoma cells; assay: steady state accumulation of VBL, KB-3-1; type: cell-based
Experimental: as §1, §2

[7] = system: KB-3-1 human cervical carcinoma cells; assay: efflux of VBL, KB-3-1; type: cell-based; conditions: 50 μM masoprocol
Experimental: A further test was conducted to show the effect of masoprocol on the efflux of VBL from cells. Cells were incubated with [^3 H]VBL with or without 50 μM masoprocol for 2 hours. The medium was then replaced with drug-free medium. After incubation for various times, the amount of VBL remaining in the cells was determined as described above. The data was presented in terms of the percentage of VBL remaining at various efflux times compared to VBL in cells with an efflux time of zero. In FIGS. 3a and 3b, efflux is expressed as pmol VBL. In FIGS. 3c and 3d, efflux is expressed as percentage of VBL levels at time zero.

[8] = one hour, masoprocol with [3H]VBL

IC50 [3]: 43.6 µM
Structure (SMILES): C[C@H](Cc1ccc(O)c(O)c1)[C@@H](C)Cc1ccc(O)c(O)c1 [Masoprocol, meso-1,4-bis (3,4-dihydroxyphenyl)-2,3-dimethylbutane]
effects on vincristine compared with VBL [1]: comparative effects
effectiveness in treatment of growth of the skin [2]: effective
toxicity to normal cells versus doxorubicin (normal cells): less toxic than doxorubicin
effect on VBL cytotoxicity / colony formation [4]: increase in the cytotoxicity of VBL; also recorded: increases the cytotoxic effect of VBL
steady state accumulation of VBL, compared with verapamil ([5]; 50 μM masoprocol): comparable to that of 10 μM verapamil
steady state accumulation of VBL [5, 8]: dose-dependent increase in the steady state accumulation of VBL; also recorded: increases the steady state accumulation of VBL
retarding senescence or aging (mammals): having efficacy in retarding senescence or aging in mammals
IC50 (SNB Glioblastoma cells; 1 h, One Hour Pulse Treatment): 312 µM
IC50 (SNB Glioblastoma cells; Continuous Drug Exposure, observation at 70 hours): 0.08 µM
steady state accumulation of VBL, compared with verapamil ([6]; 50 μM masoprocol): comparable to that of 10 μM verapamil
steady state accumulation of VBL [6, 8]: dose-dependent increase in the steady state accumulation of VBL; also recorded: increases the steady state accumulation of VBL
modulation of VBL efflux [7]: does not modulate VBL efflux
VBL levels at efflux time zero ([7]; 2 hours, FIG. 3b): higher in masoprocol-treated cells
percent of VBL retained at various efflux time points ([7]; FIG. 3d): not affected by masoprocol treatment
modulation of VBL efflux ([7]; listed as masoprocol): does not influence the rate of efflux of VBL
